Experimental data as given in publication PMC7180638, “Synthesis of Pyrrolidine Monocyclic Analogues of Pochonicine and Its Stereoisomers: Pursuit of Simplified Structures and Potent β-N-Acetylhexosaminidase Inhibition” (Molecules, 2020).
Counter-ions that a name gives are not always drawn. Like-named read-outs stand apart in the source and are kept apart here.

How the values were obtained:
Assay type in all cases: biochemical
[1] = target: β-N-Acetylgalactosaminidase (HL60); test: β-N-Acetylgalactosaminidase (HL60) inhibition
Protocol: (§1) With rat intestinal maltase as an exception, other enzymes were purchased from Sigma-Aldrich Chemical Co. (St. Louis, MO, USA). Brush border membranes prepared from rat small intestine according to the method of Kessler et al. were assayed at pH 6.8 for rat intestinal maltase using maltose. The released D-glucose was determined colorimetrically using the Glucose CII-test Wako (Wako Pure Chemical Ind.; Osaka, Japan). Other glycosidase activities were determined using an appropriate p-nitrophenyl glycoside as substrate in a buffer solution at the optimal pH value of each enzyme. The reaction was stopped by adding 400 mM Na2CO3. The released p-nitrophenol was measured spectrometrically at 400 nm.

β-Mannosidase (Snail) = test: β-Mannosidase (snail) inhibition
Protocol: as §1

α-Glucosidase (Yeast) = α-Glucosidase (Yeast) (Saccharomyces cerevisiae, UniProt P53341); test: α-Glucosidase (yeast) inhibition
Chain of α-Glucosidase (Yeast) (P53341 whole entry): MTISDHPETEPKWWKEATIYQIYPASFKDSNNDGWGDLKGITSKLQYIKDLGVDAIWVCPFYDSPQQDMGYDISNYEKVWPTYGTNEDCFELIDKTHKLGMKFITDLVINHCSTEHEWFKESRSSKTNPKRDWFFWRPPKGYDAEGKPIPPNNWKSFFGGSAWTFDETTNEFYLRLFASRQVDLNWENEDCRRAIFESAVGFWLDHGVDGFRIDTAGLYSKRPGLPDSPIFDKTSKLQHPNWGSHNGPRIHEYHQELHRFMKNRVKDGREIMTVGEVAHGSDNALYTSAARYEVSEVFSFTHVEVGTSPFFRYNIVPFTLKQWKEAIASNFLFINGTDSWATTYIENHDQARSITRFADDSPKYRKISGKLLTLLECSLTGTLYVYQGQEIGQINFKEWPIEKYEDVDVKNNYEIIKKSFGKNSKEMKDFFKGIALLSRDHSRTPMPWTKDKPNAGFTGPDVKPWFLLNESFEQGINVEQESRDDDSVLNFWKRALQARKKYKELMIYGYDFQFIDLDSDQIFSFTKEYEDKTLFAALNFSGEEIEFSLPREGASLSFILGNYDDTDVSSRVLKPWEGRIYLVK
Protocol: as §1

[2] = target: T1, Amyloglucosidase (A. niger) (Aspergillus niger, UniProt P69328); test: Amyloglucosidase (A. niger) inhibition
T1 construct: purchased Sigma-Aldrich Chemical Co
T1 sequence (P69328 25-640): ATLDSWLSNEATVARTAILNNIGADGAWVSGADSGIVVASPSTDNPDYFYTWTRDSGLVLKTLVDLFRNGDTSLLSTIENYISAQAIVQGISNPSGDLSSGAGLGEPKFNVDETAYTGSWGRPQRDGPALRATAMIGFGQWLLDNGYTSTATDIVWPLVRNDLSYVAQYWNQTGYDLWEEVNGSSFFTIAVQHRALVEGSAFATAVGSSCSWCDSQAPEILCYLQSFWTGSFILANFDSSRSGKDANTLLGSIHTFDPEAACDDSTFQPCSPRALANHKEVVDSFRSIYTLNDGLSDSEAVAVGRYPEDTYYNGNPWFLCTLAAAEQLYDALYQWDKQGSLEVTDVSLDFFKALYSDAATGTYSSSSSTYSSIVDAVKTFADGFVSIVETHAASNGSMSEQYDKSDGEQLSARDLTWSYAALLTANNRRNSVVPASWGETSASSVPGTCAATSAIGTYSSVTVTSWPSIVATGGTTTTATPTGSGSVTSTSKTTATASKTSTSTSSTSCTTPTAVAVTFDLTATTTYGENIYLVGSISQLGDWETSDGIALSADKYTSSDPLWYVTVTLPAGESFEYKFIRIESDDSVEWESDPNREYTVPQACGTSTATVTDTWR
Protocol: as §1

[3] = target: T2, α-Galactosidase (Coffee beans) (Coffea arabica, UniProt Q42656); test: α-Galactosidase (coffee beans) inhibition
T2 construct: purchased Sigma-Aldrich Chemical Co
T2 sequence (Q42656 16-378): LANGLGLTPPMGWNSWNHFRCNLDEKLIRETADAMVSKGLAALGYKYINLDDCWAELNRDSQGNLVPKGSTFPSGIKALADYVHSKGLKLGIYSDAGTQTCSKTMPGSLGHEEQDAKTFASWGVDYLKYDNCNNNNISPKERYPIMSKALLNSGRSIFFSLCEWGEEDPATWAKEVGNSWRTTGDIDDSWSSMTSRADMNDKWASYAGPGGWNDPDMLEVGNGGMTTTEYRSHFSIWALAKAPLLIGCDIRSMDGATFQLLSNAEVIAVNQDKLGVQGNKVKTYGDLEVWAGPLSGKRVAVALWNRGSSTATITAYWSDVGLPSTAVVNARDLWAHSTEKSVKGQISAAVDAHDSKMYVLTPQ
Protocol: as §1

[4] = target: β-N-Acetylhexosaminidase (Bovine liver); test: β-N-Acetylhexosaminidase (bovine liver) inhibition
Protocol: as §1

[5] = target: T3, β-Glucuronidase (E. coli) (Escherichia coli, UniProt P05804); test: β-Glucuronidase (E. coli) inhibition
T3 construct: purchased Sigma-Aldrich Chemical Co
T3 sequence (P05804 whole entry): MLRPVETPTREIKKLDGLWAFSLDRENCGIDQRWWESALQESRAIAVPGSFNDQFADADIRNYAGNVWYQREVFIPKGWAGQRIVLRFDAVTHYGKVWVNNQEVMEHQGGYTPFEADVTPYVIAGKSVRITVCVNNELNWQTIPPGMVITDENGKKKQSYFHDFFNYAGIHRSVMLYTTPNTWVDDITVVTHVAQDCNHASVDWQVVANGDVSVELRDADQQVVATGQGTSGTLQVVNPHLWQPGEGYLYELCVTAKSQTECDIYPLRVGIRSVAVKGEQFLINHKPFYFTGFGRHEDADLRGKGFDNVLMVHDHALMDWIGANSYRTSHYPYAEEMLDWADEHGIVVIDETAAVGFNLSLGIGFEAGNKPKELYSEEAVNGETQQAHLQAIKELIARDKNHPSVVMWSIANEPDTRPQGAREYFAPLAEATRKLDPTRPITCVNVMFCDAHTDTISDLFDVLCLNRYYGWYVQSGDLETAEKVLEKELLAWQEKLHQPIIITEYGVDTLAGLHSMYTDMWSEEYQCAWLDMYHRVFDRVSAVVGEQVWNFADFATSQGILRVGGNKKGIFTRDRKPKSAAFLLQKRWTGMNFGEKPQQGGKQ
Protocol: as §1

[6] = target: β-Glucosidase (Bovine liver); test: β-Glucosidase (bovine liver) inhibition
Protocol: as §1

β-Glucosidase (Almond) = test: β-Glucosidase (almond) inhibition
Protocol: as §1

[7] = target: T4, β-Glucuronidase (Bovine liver) (Bos taurus, UniProt A3KMY8); test: β-Glucuronidase (bovine liver) inhibition
T4 construct: purchased Sigma-Aldrich Chemical Co; host or cells: bovine liver
T4 sequence (A3KMY8 1-652): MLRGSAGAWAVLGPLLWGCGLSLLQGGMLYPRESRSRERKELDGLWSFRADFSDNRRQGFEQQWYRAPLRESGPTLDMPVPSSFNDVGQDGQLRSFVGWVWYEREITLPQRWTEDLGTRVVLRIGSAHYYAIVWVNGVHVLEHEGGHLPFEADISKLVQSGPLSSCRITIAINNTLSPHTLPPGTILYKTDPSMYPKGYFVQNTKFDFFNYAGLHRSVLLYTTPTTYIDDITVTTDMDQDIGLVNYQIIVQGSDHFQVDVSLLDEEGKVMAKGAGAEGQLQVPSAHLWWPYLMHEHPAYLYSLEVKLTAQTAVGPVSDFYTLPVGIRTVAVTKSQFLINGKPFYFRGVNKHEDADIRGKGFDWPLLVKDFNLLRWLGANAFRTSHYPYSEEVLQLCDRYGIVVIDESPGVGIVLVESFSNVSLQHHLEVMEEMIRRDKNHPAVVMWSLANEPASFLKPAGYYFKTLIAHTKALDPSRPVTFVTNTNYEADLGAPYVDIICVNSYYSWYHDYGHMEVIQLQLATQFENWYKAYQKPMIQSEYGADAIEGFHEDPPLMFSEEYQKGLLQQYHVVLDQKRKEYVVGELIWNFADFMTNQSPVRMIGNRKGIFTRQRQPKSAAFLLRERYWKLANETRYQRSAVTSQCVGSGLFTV
Protocol: as §1

[8] = target: β-N-Acetylhexosaminidase (Jack bean); test: β-N-Acetylhexosaminidase (Jack bean) inhibition; conditions: β-N-Acetylhexosaminidase (β-GlcNAcase), read-out: IC50
Protocol: as §1

α-Glucosidase (Rice) = target: T5, α-Glucosidase (Rice) (Oryza sativa subsp. japonica, UniProt Q653V7); test: α-Glucosidase (rice) inhibition
T5 construct: purchased Sigma-Aldrich Chemical Co
T5 sequence (Q653V7 34-885): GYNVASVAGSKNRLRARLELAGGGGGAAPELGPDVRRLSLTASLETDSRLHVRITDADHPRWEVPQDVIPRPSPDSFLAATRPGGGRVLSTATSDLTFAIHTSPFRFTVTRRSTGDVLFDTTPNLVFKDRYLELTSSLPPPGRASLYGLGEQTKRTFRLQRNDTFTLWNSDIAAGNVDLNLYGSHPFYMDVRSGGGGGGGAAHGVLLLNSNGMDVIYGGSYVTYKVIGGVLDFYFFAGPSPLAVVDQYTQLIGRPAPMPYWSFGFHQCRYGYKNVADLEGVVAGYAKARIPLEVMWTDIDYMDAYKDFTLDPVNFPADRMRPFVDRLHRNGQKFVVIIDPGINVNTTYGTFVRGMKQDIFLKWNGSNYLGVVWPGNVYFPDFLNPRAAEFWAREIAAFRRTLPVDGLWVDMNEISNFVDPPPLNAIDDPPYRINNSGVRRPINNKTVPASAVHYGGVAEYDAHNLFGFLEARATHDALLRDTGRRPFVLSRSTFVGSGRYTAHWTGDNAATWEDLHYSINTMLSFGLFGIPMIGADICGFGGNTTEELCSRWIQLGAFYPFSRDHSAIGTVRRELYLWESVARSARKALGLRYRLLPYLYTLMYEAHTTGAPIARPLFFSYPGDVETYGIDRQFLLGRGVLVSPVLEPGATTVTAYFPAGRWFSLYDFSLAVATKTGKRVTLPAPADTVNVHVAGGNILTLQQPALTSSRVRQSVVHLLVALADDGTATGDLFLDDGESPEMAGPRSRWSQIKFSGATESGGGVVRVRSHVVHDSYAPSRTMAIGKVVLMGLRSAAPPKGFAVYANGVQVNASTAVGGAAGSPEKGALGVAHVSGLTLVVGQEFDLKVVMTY
Protocol: as §1

[9] = target: T6, β-Galactosidase (Bovine liver) (Bos taurus, UniProt F1MNT6); test: β-Galactosidase (bovine liver) inhibition
T6 sequence (F1MNT6 1-469): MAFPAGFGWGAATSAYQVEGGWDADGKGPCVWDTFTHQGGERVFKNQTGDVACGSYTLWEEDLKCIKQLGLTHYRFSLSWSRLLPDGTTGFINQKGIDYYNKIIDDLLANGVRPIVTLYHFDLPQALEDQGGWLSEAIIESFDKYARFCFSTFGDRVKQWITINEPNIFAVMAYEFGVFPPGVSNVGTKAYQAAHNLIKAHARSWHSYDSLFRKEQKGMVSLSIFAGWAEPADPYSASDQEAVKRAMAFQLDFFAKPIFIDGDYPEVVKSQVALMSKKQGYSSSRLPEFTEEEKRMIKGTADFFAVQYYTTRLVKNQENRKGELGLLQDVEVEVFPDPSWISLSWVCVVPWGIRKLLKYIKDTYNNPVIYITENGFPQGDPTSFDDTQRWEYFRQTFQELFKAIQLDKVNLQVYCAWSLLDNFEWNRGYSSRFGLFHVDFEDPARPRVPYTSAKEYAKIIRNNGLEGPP
Protocol: as §1

[10] = target: T7, α-L-Fucosidase (Bovine kidney) (Bos taurus, UniProt Q2KIM0); test: α-L-Fucosidase (bovine kidney) inhibition
T7 construct: purchased Sigma-Aldrich Chemical Co; host or cells: bovine kidney
T7 sequence (Q2KIM0 23-468): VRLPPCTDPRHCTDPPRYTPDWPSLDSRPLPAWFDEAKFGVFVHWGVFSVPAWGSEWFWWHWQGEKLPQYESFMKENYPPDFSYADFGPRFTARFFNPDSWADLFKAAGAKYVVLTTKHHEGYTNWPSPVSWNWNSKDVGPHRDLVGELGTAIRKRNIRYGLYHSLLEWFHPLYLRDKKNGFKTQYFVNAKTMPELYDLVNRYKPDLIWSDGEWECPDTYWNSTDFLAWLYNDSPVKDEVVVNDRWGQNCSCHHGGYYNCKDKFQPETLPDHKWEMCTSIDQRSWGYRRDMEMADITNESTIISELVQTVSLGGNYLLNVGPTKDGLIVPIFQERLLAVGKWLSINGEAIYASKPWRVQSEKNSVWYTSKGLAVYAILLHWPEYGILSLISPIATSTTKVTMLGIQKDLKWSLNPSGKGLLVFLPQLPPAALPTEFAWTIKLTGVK
Protocol: as §1

[11] = target: β-N-Acetylhexosaminidase (HL60); test: β-N-Acetylhexosaminidase (HL60) inhibition
Protocol: as §1

[12] = target: α-L-Rhamnosidase (P. decumbens); test: α-L-Rhamnosidase (P. decumbens) inhibition
Protocol: as §1

[13] = 1000 μM, read-out: Inhibition % at 1000 μM
[14] = β-N-Acetylhexosaminidase (β-GlcNAcase)
[15] = β-N-Acetylhexosaminidase, 1000 μM

For `CC(=O)NC[C@@H]1N[C@H](CO)[C@@H](O)[C@H]1O` [H-10, 1-N-acetylamino-2,5-imino-1,2,5-trideoxy-L-allitol hydrochloride], the IC50 [1] was “NI (No Inhibition (less than 50% at 1000 μM))”, the “Inhibition % at 1000 μM” value ([1]; 1000 μM) was 5.3% and the IC50 (β-Mannosidase (Snail)) was “NI (No Inhibition (less than 50% at 1000 μM))”. The “Inhibition % at 1000 μM” value (β-Mannosidase (Snail); 1000 μM) was 0%, the inhibition at 1000 µM (α-Glucosidase (Yeast); read-out: Inhibition % at 1000 μM) was 0% and the inhibition at 1000 µM (α-Glucosidase (Yeast); α-Glucosidase, Yeast, read-out: IC50) was less than 50%. For the same molecule, the inhibition at 1000 µM [2, 13] was 8.3%, the inhibition at 1000 µM ([2]; read-out: IC50) was less than 50% and the inhibition at 1000 µM [3, 13] was 0%. For the same molecule, the inhibition at 1000 µM ([3]; read-out: IC50) was less than 50%, the IC50 [4, 14] was “NI (No Inhibition (less than 50% at 1000 μM))” and the “Inhibition % at 1000 μM” value [4, 15] was 33.7%. The inhibition at 1000 µM [5, 13] was 0%, the inhibition at 1000 µM ([5]; read-out: IC50) was less than 50% and the IC50 [6] was “NI (No Inhibition (less than 50% at 1000 μM))”. The “Inhibition % at 1000 μM” value ([6]; 1000 μM) was 1.7%, the IC50 (β-Glucosidase (Almond)) was “NI (No Inhibition (less than 50% at 1000 μM))” and the “Inhibition % at 1000 μM” value (β-Glucosidase (Almond); 1000 μM) was 17.1%. The inhibition at 1000 µM [7, 13] was 0%, the inhibition at 1000 µM ([7]; read-out: IC50) was less than 50% and the IC50 [8] was 241 µM. It also gave an inhibition at 1000 µM (α-Glucosidase (Rice); [13]) of 5.6%, an inhibition at 1000 µM (α-Glucosidase (Rice); read-out: IC50) of less than 50% and an inhibition at 1000 µM [9, 13] of 3.6%. The inhibition at 1000 µM ([9]; read-out: IC50) was less than 50%, the inhibition at 1000 µM [10, 13] was 22.3% and the inhibition at 1000 µM ([10]; read-out: IC50) was less than 50%. For the same molecule, the IC50 [11, 14] was “NI (No Inhibition (less than 50% at 1000 μM))”, the “Inhibition % at 1000 μM” value [11, 15] was 0.3% and the IC50 [12] was “NI (No Inhibition (less than 50% at 1000 μM))”. For the same molecule, the “Inhibition % at 1000 μM” value ([12]; 1000 μM) was 7.7%.
